This passage reports IC50, Ratio IC50 and inhibition results from ChEMBL document CHEMBL2331341, “Determination of the α-conotoxin Vc1.1 binding site on the α9α10 nicotinic acetylcholine receptor” (J Med Chem, 2013).

pIC50: −log10 of the molar value. Positions of bridges follow the written chain, without caps; N, C: chain ends. Residues, ends and D or L forms follow the SMILES beside them.

By pIC50 is commonly meant −log10 of the IC50, conventionally taken in molar units. What is called inhibition is the drop in the measured response relative to a control, in per cent.

Test [1] addresses Nicotinic acetylcholine receptor alpha9/alpha10 (Rattus norvegicus, UniProt P43144+Q9JLB5). Description: Inhibition of rat alpha9/alpha10 nAChR expressed in Xenopus oocytes assessed as inhibition of acetylcholine-induced currents after 300 secs by two-electrode voltage clamp assay. The test is classed as cell-based, Oocyte. On the technique in general: Two-electrode voltage clamp holds a large cell at a set potential and records current.

The nature of test [2]: Inhibition of human alpha9 rat alpha10 nAChR expressed in Xenopus oocytes assessed as inhibition of acetylcholine-induced currents after 300 secs by two-electrode voltage clamp assay. The test is classed as cell-based. As to conditions: Oocyte.
Test [3] in a line: Selectivity ratio of IC50 for human alpha9 rat alpha10 nAChR to IC50 for rat alpha9/alpha10 nAChR.
The next test relates to Oocyte. The test can be described thus: Inhibition of human alpha9 rat alpha10 nAChR expressed in Xenopus oocytes assessed as inhibition of acetylcholine-induced currents at 100 nM after 300 secs by two-electrode voltage clamp assay. The test is classed as cell-based.

Chain of Nicotinic acetylcholine receptor alpha9/alpha10 (P43144 whole entry): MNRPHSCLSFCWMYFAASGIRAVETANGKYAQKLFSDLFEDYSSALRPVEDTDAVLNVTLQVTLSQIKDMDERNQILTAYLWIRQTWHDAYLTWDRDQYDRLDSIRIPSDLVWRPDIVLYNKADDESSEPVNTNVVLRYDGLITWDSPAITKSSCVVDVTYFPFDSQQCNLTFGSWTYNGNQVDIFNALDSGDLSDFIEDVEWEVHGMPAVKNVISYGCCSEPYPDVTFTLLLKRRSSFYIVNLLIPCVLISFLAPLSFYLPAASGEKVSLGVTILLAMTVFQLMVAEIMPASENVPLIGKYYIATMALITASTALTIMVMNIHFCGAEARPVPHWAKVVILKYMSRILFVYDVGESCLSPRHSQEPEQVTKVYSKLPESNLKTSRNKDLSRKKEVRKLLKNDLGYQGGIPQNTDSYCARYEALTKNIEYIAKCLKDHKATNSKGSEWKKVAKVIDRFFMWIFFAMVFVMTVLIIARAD
Chain of Nicotinic acetylcholine receptor alpha9/alpha10 (Q9JLB5 whole entry): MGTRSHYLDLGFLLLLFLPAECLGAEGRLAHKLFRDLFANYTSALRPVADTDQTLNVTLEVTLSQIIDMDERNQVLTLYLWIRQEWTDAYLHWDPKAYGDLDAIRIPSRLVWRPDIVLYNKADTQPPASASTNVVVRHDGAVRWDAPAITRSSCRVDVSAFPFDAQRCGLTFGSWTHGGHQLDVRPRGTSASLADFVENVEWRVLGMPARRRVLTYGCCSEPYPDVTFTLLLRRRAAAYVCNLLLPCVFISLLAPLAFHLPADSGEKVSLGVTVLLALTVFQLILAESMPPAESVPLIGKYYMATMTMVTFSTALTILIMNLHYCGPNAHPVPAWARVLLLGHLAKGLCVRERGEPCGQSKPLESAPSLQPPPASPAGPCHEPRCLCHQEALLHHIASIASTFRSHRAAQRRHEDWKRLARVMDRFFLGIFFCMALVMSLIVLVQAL

`CC[C@H](C)[C@@H]1NC(=O)[C@H](CCC(=O)O)NC(=O)[C@@H]2CCCN2C(=O)[C@H](Cc2cnc[nH]2)NC(=O)[C@H](CC(=O)O)NC(=O)[C@H](Cc2ccc(O)cc2)NC(=O)[C@H](CC(N)=O)NC(=O)[C@@H]2CSSC[C@H](NC(=O)CN)C(=O)N[C@@H](CSSC[C@@H](C(=O)O)NC1=O)C(=O)N[C@@H](CO)C(=O)N[C@@H](CC(=O)O)C(=O)N1CCC[C@H]1C(=O)N[C@@H](CCCNC(=N)N)C(=O)N2`: the negative-log IC50 (pIC50) is 7.15 in test [1] and 6.01 in test [2]. Further, the Ratio IC50 in test [3] worked out at 14.
For `CC[C@H](C)[C@@H]1NC(=O)[C@H](CCC(=O)O)NC(=O)[C@@H]2CCCN2C(=O)[C@H](Cc2cnc[nH]2)NC(=O)[C@H](CC(=O)O)NC(=O)[C@H](Cc2c[nH]c3ccccc23)NC(=O)[C@H](CC(N)=O)NC(=O)[C@@H]2CSSC[C@H](NC(=O)CN)C(=O)N[C@@H](CSSC[C@@H](C(=O)O)NC1=O)C(=O)N[C@@H](CO)C(=O)N[C@@H](CC(=O)O)C(=O)N1CCC[C@H]1C(=O)N[C@@H](CCCNC(=N)N)C(=O)N2` (H-GCCSDPRCNWDHPEIC-OH; disulfide 2-8, 3-16), the results for the pIC50 in test [1] and in test [2] were 7.37 and 7.48, respectively. Besides, in the test on Oocyte, the inhibition is 80%.
The matching figures for `CC[C@H](C)[C@@H]1NC(=O)[C@H](CCC(=O)O)NC(=O)[C@@H]2CCCN2C(=O)[C@H](Cc2cnc[nH]2)NC(=O)[C@H](CC(=O)O)NC(=O)[C@H](Cc2ccccc2)NC(=O)[C@H](CC(N)=O)NC(=O)[C@@H]2CSSC[C@H](NC(=O)CN)C(=O)N[C@@H](CSSC[C@@H](C(=O)O)NC1=O)C(=O)N[C@@H](CO)C(=O)N[C@@H](CC(=O)O)C(=O)N1CCC[C@H]1C(=O)N[C@@H](CCCNC(=N)N)C(=O)N2` (H-GCCSDPRCNFDHPEIC-OH; disulfide 2-8, 3-16): 6.30, 6.12 and 10%.
